Assay results from ChEMBL document CHEMBL4304802, “Novel promising 4-anilinoquinazoline-based derivatives as multi-target RTKs inhibitors: Design, molecular docking, synthesis, and antitumor activities in vitro and vivo” (Bioorg Med Chem, 2019).
Active and inactive are the calls of the source. The calls are words filed in the database; no cut-off is given here.

How the values were obtained:
[1] = test system: DU-145; assay: Antiproliferative activity against human DU145 cells incubated for 72 hrs by MTT assay; type: functional, cell-based; settings: DU-145, 72 h
[2] = test system: A549; assay: Antiproliferative activity against human A549 cells incubated for 72 hrs by MTT assay; type: functional, cell-based; settings: A549, 72 h
[3] = Cytotoxicity against human CCC-HPF1 cells assessed as decrease in cell viability incubated for 72 hrs by MTT assay; type: cell-based; settings: CCC-HPF-1, 72 h
[4] = test system: SH-SY5Y; assay: Antiproliferative activity against human SH-SY5Y cells incubated for 72 hrs by MTT assay; type: functional, cell-based
[5] = test system: HepG2; assay: Antiproliferative activity against human HepG2 cells incubated for 72 hrs by MTT assay; type: functional, cell-based; settings: HepG2, 72 h
[6] = test system: MCF7; assay: Antiproliferative activity against human MCF7 cells incubated for 72 hrs by MTT assay; type: functional, cell-based; settings: MCF7, 72 h
[7] = Toxicity in nude mouse xenografted with human HepG2 cells assessed as change in body weight at 40 mg/kg administrated daily for 50 days post implantation; type: organism-based; settings: in vivo, 1200 h
[8] = test system: HepG2; assay: Antitumor activity against human HepG2 cells xenografted in nude mouse assessed as suppression of tumor volume at 20 to 40 mg/kg administrated daily for 50 days post implantation by vernier caliper analysis; type: functional, organism-based
[9] = test system: HepG2; assay: Disruption of mitochondrial membrane potential in human HepG2 cells at 1.5 uM to 5 uM incubated for 48 hrs by JC-1 dye based fluorescence spectrophotometric analysis; type: functional, cell-based
[10] = Toxicity in nude mouse xenografted with human HepG2 cells assessed as change in body weight at 20 to 30 mg/kg administrated daily for 50 days post implantation; type: organism-based; settings: in vivo, 1200 h
[11] = test system: HepG2; assay: Induction of apoptosis in human HepG2 cells assessed as late apoptotic cells at 2 times IC50 incubated for 48 hrs by Annexin V-FITC and PI staining based flow cytometric analysis (reference value: 3.47%); type: functional
[12] = target: Vascular endothelial growth factor receptor 2 (Homo sapiens, UniProt P35968); assay: Inhibition of VEGFR2 (unknown origin) using TK substrate incubated for 60 mins by FRET assay
Chain of Vascular endothelial growth factor receptor 2 (P35968 whole entry): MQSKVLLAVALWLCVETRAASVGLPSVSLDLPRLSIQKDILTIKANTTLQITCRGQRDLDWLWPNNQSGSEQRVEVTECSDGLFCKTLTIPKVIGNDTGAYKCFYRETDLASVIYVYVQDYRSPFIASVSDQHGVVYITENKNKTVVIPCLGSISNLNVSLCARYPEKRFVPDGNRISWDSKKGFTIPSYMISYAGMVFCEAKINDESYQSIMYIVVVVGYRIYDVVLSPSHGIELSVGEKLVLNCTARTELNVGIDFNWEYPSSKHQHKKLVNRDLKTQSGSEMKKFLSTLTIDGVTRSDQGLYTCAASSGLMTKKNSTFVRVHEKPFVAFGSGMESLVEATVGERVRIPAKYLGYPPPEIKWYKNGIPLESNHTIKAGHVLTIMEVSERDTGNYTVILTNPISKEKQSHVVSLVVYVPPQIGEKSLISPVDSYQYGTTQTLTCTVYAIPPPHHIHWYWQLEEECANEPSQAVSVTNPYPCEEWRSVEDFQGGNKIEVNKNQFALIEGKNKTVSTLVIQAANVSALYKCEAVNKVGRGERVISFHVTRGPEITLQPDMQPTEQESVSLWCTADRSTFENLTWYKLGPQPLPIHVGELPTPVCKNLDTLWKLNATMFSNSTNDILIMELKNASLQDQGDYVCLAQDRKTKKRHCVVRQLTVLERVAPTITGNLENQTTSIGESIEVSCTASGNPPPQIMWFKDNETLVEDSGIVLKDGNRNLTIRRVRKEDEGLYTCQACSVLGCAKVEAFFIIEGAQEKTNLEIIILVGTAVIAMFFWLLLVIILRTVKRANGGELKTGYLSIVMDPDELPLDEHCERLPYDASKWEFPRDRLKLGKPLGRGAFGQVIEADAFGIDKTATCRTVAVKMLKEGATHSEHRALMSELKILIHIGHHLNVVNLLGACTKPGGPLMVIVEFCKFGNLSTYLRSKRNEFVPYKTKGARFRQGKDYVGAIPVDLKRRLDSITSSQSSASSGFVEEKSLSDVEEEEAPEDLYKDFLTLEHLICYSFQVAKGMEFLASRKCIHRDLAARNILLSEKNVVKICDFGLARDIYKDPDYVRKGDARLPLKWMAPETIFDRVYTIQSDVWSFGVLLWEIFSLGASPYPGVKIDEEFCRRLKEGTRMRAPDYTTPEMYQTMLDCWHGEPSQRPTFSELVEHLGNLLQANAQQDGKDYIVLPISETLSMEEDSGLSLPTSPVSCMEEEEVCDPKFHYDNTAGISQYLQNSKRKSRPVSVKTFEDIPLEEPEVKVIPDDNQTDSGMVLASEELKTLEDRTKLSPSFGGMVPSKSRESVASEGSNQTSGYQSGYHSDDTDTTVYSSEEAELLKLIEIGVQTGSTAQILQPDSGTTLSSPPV

[13] = test system: HepG2; assay: Disruption of mitochondrial membrane potential in human HepG2 cells assessed as cell shriveled at 1.5 uM to 5 uM incubated for 48 hrs by JC-1 dye based LSCM analysis; type: functional
[14] = test system: HepG2; assay: Induction of apoptosis in human HepG2 cells assessed as viable cells at 2 times IC50 incubated for 48 hrs by Annexin V-FITC and PI staining based flow cytometric analysis (reference value: 93.4%); type: functional
[15] = test system: HepG2; assay: Induction of apoptosis in human HepG2 cells assessed as late apoptotic cells at IC50 incubated for 48 hrs by Annexin V-FITC and PI staining based flow cytometric analysis (reference value: 3.47%); type: functional
[16] = test system: HepG2; assay: Induction of apoptosis in human HepG2 cells assessed as necrotic cells at 2 times IC50 incubated for 48 hrs by Annexin V-FITC and PI staining based flow cytometric analysis (reference value: 1.36%); type: functional
[17] = target: Epidermal growth factor receptor (Homo sapiens, UniProt P00533); assay: Inhibition of EGFR (unknown origin) using TK substrate incubated for 60 mins by FRET assay
Chain of Epidermal growth factor receptor (P00533 whole entry): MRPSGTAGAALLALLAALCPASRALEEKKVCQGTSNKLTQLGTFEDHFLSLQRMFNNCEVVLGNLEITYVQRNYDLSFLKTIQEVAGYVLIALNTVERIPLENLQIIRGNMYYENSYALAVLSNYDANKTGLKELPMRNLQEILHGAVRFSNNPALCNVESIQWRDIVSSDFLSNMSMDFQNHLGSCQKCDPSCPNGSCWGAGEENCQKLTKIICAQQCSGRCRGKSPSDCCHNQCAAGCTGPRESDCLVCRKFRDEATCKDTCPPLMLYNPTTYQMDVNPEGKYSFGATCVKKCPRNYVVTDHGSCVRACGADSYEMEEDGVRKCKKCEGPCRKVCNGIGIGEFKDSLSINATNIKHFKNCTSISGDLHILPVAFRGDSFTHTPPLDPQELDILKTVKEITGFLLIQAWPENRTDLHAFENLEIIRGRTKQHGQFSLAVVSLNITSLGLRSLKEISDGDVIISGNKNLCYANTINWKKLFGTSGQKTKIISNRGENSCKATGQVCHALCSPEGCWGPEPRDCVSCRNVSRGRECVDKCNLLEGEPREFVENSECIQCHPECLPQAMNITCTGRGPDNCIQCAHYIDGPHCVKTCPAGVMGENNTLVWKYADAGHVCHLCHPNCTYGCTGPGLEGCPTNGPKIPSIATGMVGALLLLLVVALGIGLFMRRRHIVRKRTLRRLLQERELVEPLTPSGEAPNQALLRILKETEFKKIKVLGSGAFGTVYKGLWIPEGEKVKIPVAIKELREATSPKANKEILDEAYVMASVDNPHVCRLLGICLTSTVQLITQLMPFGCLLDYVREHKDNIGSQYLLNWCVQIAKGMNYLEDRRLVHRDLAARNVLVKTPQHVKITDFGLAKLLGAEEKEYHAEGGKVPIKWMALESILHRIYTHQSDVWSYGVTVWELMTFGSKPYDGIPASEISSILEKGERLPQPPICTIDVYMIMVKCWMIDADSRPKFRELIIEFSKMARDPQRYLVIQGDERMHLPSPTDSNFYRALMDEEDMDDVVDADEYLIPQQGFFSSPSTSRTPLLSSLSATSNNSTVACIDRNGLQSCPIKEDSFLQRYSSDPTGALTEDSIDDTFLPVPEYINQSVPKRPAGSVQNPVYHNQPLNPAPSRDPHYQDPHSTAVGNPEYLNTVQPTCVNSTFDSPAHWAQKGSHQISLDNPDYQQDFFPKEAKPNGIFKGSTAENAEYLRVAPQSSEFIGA

[18] = target: Platelet-derived growth factor receptor beta (Homo sapiens, UniProt P09619); assay: Inhibition of PDGFRbeta (unknown origin) using TK substrate incubated for 60 mins by FRET assay
Chain of Platelet-derived growth factor receptor beta (P09619 whole entry): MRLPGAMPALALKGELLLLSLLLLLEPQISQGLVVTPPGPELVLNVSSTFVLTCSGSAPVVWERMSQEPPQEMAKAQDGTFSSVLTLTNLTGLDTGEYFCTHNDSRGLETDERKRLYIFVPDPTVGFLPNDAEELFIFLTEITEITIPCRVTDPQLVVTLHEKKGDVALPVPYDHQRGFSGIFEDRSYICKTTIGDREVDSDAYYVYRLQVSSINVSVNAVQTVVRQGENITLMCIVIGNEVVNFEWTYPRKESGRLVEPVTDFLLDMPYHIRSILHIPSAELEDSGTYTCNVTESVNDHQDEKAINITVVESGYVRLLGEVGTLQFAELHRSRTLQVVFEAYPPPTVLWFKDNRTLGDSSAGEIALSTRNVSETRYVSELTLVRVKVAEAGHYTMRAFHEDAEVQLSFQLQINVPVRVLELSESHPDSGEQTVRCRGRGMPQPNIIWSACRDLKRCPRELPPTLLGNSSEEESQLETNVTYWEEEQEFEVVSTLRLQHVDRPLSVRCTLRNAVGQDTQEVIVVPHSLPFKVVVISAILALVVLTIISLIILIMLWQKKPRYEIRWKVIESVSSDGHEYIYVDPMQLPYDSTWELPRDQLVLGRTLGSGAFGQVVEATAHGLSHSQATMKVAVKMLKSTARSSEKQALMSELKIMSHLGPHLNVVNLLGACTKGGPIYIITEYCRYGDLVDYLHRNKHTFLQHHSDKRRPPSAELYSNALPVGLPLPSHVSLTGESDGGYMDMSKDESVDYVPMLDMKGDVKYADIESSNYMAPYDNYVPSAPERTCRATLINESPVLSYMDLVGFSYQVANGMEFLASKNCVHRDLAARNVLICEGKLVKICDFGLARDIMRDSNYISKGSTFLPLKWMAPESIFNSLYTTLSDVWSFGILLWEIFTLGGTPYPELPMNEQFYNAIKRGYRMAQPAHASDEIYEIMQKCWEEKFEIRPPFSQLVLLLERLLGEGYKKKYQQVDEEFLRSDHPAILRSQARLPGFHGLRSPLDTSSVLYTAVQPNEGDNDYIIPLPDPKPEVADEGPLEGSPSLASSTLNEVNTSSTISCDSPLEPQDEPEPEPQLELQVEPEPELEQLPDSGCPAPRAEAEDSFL

[19] = test system: HepG2; assay: Disruption of mitochondrial membrane potential in human HepG2 cells assessed as appearance of cell desquamation at 1.5 uM to 5 uM incubated for 48 hrs by JC-1 dye based LSCM analysis; type: functional
[20] = test system: HepG2; assay: Antitumor activity against human HepG2 cells xenografted in nude mouse assessed as inhibition of tumor growth administrated daily for 50 days post implantation by vernier caliper analysis; type: functional
[21] = test system: HepG2; assay: Induction of ROS generation in human HepG2 cells assessed as increase in green fluorescence incubated for 48 hrs by DCFH-DA staining based LSCM method; type: functional, cell-based
[22] = test system: HepG2; assay: Induction of apoptosis in human HepG2 cells assessed as necrotic cells at IC50 incubated for 48 hrs by Annexin V-FITC and PI staining based flow cytometric analysis (reference value: 1.36%); type: functional
[23] = test system: HepG2; assay: Induction of apoptosis in human HepG2 cells assessed as early apoptotic cells at IC50 incubated for 48 hrs by Annexin V-FITC and PI staining based flow cytometric analysis (reference value: 1.75%); type: functional
[24] = test system: HepG2; assay: Induction of apoptosis in human HepG2 cells assessed as viable cells at IC50 incubated for 48 hrs by Annexin V-FITC and PI staining based flow cytometric analysis (reference value: 93.4%); type: functional
[25] = test system: HepG2; assay: Induction of apoptosis in human HepG2 cells assessed as early apoptotic cells at 2 times IC50 incubated for 48 hrs by Annexin V-FITC and PI staining based flow cytometric analysis (reference value: 1.75%); type: functional
[26] = test system: HepG2; assay: Induction of apoptosis in human HepG2 cells assessed as early apoptotic cells at 0.5 times IC50 incubated for 48 hrs by Annexin V-FITC and PI staining based flow cytometric analysis (reference value: 1.75%); type: functional
[27] = test system: HepG2; assay: Induction of apoptosis in human HepG2 cells assessed as cell shrinkage at 2 to 8 uM incubated for 48 hrs by optical microscopic method; type: functional, cell-based
[28] = test system: HepG2; assay: Antitumor activity against human HepG2 cells xenografted in nude mouse assessed as inhibition of tumor at 40 mg/kg administrated daily for 30 days post implantation by vernier caliper analysis relative to control; type: functional; settings: HepG2, 720 h
[29] = test system: HepG2; assay: Induction of apoptosis in human HepG2 cells assessed as late apoptotic cells at 0.5 times IC50 incubated for 48 hrs by Annexin V-FITC and PI staining based flow cytometric analysis (reference value: 3.47%); type: functional
[30] = test system: HepG2; assay: Induction of apoptosis in human HepG2 cells assessed as cell detachment at 2 to 8 uM incubated for 48 hrs by optical microscopic method; type: functional, cell-based
[31] = test system: HepG2; assay: Induction of apoptosis in human HepG2 cells assessed as necrotic cells at 0.5 times IC50 incubated for 48 hrs by Annexin V-FITC and PI staining based flow cytometric analysis (reference value: 1.36%); type: functional
[32] = test system: HepG2; assay: Induction of apoptosis in human HepG2 cells assessed as viable cells at 0.5 times IC50 incubated for 48 hrs by Annexin V-FITC and PI staining based flow cytometric analysis (reference value: 93.4%); type: functional
[33] = test system: HepG2; assay: Induction of apoptosis in human HepG2 cells assessed as decrease in cell number at 2 to 8 uM incubated for 48 hrs by optical microscopic method; type: functional, cell-based

c1ccc(COc2ccc(Nc3ncnc4cc5c(cc34)OCCOCCOCCOCCO5)cc2)cc1
IC50 [1]: 8.8 µM
IC50 [2]: 29.5 µM
IC50 [3]: 33.7 µM
IC50 [4]: 5.25 µM
IC50 [5]: 11.9 µM
IC50 [6]: 12 µM

O=[N+]([O-])c1ccc(COc2cccc(Nc3ncnc4cc5c(cc34)OCCOCCO5)c2)cc1
IC50 [1]: > 100 µM
IC50 [2]: 15.5 µM
IC50 [4]: 36.6 µM
IC50 [5]: 65.3 µM
IC50 [6]: 42.4 µM

c1ccc(COc2ccccc2Nc2ncnc3cc4c(cc23)OCCOCCO4)cc1
IC50 [1]: > 100 µM
IC50 [2]: > 100 µM
IC50 [4]: 93.7 µM
IC50 [5]: > 100 µM
IC50 [6]: > 100 µM

FC(F)(F)c1ccc(COc2cccc(Nc3ncnc4cc5c(cc34)OCCOCCO5)c2)cc1
IC50 [1]: > 100 µM
IC50 [2]: > 100 µM
IC50 [4]: 19.3 µM
IC50 [5]: > 100 µM
IC50 [6]: > 100 µM

O=[N+]([O-])c1ccc(COc2cccc(Nc3ncnc4cc5c(cc34)OCCOCCOCCO5)c2)cc1
IC50 [1]: > 100 µM
IC50 [2]: > 100 µM
IC50 [4]: > 100 µM
IC50 [5]: > 100 µM
IC50 [6]: > 100 µM

c1ccc(COc2cccc(Nc3ncnc4cc5c(cc34)OCCOCCOCCO5)c2)cc1
IC50 [1]: > 100 µM
IC50 [2]: > 100 µM
IC50 [4]: 22.8 µM
IC50 [5]: > 100 µM
IC50 [6]: > 100 µM

c1ccc(COc2ccc(Nc3ncnc4cc5c(cc34)OCCOCCOCCO5)cc2)cc1
IC50 [1]: > 100 µM
IC50 [2]: > 100 µM
IC50 [3]: > 100 µM
IC50 [4]: 23.9 µM
IC50 [5]: > 100 µM
IC50 [6]: 8.34 µM

FC(F)(F)c1ccc(COc2ccccc2Nc2ncnc3cc4c(cc23)OCCOCCO4)cc1
IC50 [1]: > 100 µM
IC50 [2]: > 100 µM
IC50 [4]: > 100 µM
IC50 [5]: > 100 µM
IC50 [6]: > 100 µM

FC(F)(F)c1ccc(COc2ccc(Nc3ncnc4cc5c(cc34)OCCOCCOCCOCCO5)cc2)cc1
Activity [7]: Toxic
IC50 [1]: 8.8 µM
Activity [8]: Active
IC50 [2]: 8.56 µM
IC50 [3]: 38.2 µM
Activity [9]: Active
Activity [10]: Non-Toxic
Activity [11]: 61.3%
IC50 [12]: 0.0464 µM
Activity [13]: Active
Activity [14]: 29.1%
Activity [15]: 52.5%
Activity [16]: 1.35%
IC50 [17]: 0.385 µM
IC50 [18]: 0.674 µM
IC50 [4]: 2.14 µM
IC50 [5]: 3.34 µM
Activity [19]: Active
inhibition [20]: Dose-dependent effect
Activity [21]: Dose-dependent effect
Activity [22]: 3.61%
Activity [23]: 8.89%
Activity [24]: 35%
Activity [25]: 8.27%
Activity [26]: 3.72%
Activity [27]: Active
inhibition in vivo at 40 mg/kg [28]: 100%
Activity [29]: 24%
Activity [30]: Active
Activity [31]: 1.01%
IC50 [6]: 10 µM
Activity [32]: 71.3%
Activity [33]: Active

c1ccc(COc2cccc(Nc3ncnc4cc5c(cc34)OCCOCCO5)c2)cc1
IC50 [1]: > 100 µM
IC50 [2]: 7.59 µM
IC50 [3]: > 100 µM
IC50 [4]: 68.4 µM
IC50 [5]: > 100 µM
IC50 [6]: 40.9 µM

c1ccc(COc2ccccc2Nc2ncnc3cc4c(cc23)OCCOCCOCCO4)cc1
IC50 [1]: 13.9 µM
IC50 [2]: 6.94 µM
IC50 [3]: > 100 µM
IC50 [4]: 98.4 µM
IC50 [5]: 37.3 µM
IC50 [6]: 63.3 µM

O=[N+]([O-])c1ccc(COc2ccc(Nc3ncnc4cc5c(cc34)OCCOCCOCCOCCO5)cc2)cc1
IC50 [1]: > 100 µM
IC50 [2]: > 100 µM
IC50 [4]: > 100 µM
IC50 [5]: > 100 µM
IC50 [6]: > 100 µM
